From patent publication US20240092835A1, “NOVEL PEPTIDES CAPABLE OF ALTERING NK CELL ACTIVITY” (Massachusetts Institute of Technology, priority 2022, published 2024)
Where no end group is shown, it is not given here.

How the values were obtained:
NKG2A−/NKG2C+ NK cells = assay: NK cell activation markers in NKG2A-/NKG2C+ NK cells incubated with peptide and K562 expressing HLA-E (activation); type: cell-based, human; conditions: for effect on NKG2A−/NKG2C+ NK cell activation (in words): K562 expressing HLA-E, CD107a, IFNG, TNF, CCL3; for percentage of CCL3+ NK cells / percentage of CD107+ NK cells / percentage of IFNG+ NK cells / percentage of TNF+ NK cells: NKG2A-/NKG2C+ NK cells, K562/HLA-E
Outline: (§1)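 HLA-E-expressing K562 cells incubated with peptides from human or human cytomegalovirus proteomes, then with NK cell subsets sorted by NKG2A/NKG2C status. Read-out is percent of cells positive for surface markers; a rise indicates activation, a fall inhibition.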

NKG2A−/NKG2C− NK cells = assay: NK cell activation markers in control NKG2A-/NKG2C- NK cells incubated with peptide and K562 expressing HLA-E; type: cell-based, human
Outline: as §1

With VNPGRSLFL [human5, VNPGRSLFL] the “effect on NKG2A−/NKG2C+ NK cell activation (in words)” value (“effect” below) (NKG2A−/NKG2C+ NK cells; listed as SEQ ID NO. 3) was “activate”, the “effect” value (NKG2A−/NKG2C+ NK cells; listed as h5) was “activated” and the “percentage of CCL3+ NK cells” value (NKG2A−/NKG2C+ NK cells; Trial 1) was 60.9%. For the same sequence, the “percentage of CD107+ NK cells” value (NKG2A−/NKG2C+ NK cells; Trial 1) was 59.7%, the “percentage of IFNG+ NK cells” value (NKG2A−/NKG2C+ NK cells; Trial 1) was 35.3% and the “percentage of TNF+ NK cells” value (NKG2A−/NKG2C+ NK cells; Trial 1) was 17.4%. The “percentage of CCL3+ NK cells” value (NKG2A−/NKG2C+ NK cells; Trial 2) was 74.5%, the “percentage of CD107+ NK cells” value (NKG2A−/NKG2C+ NK cells; Trial 2) was 61.8% and the “percentage of IFNG+ NK cells” value (NKG2A−/NKG2C+ NK cells; Trial 2) was 43.2%. For the same sequence, the “percentage of TNF+ NK cells” value (NKG2A−/NKG2C+ NK cells; Trial 2) was 23.9%, the “percentage of CCL3+ NK cells” value (NKG2A−/NKG2C+ NK cells; Trial 3) was 72.5% and the “percentage of CD107+ NK cells” value (NKG2A−/NKG2C+ NK cells; Trial 3) was 72.6%. The “percentage of IFNG+ NK cells” value (NKG2A−/NKG2C+ NK cells; Trial 3) was 57.2%, the “percentage of TNF+ NK cells” value (NKG2A−/NKG2C+ NK cells; Trial 3) was 42.2% and the “percentage of CCL3+ NK cells” value (NKG2A−/NKG2C+ NK cells; Trial 4) was 63.8%. For the same sequence, the “percentage of CD107+ NK cells” value (NKG2A−/NKG2C+ NK cells; Trial 4) was 64.3%, the “percentage of IFNG+ NK cells” value (NKG2A−/NKG2C+ NK cells; Trial 4) was 51.1% and the “percentage of TNF+ NK cells” value (NKG2A−/NKG2C+ NK cells; Trial 4) was 36%. For the same sequence, the “percentage of CCL3+ NK cells” value (NKG2A−/NKG2C+ NK cells; Trial 5) was 69.7%, the “percentage of CD107+ NK cells” value (NKG2A−/NKG2C+ NK cells; Trial 5) was 67.6% and the “percentage of IFNG+ NK cells” value (NKG2A−/NKG2C+ NK cells; Trial 5) was 53.4%. The “percentage of TNF+ NK cells” value (NKG2A−/NKG2C+ NK cells; Trial 5) was 40.4%, the “percentage of CCL3+ NK cells” value (NKG2A−/NKG2C+ NK cells; Trial 6) was 47.2% and the “percentage of CD107+ NK cells” value (NKG2A−/NKG2C+ NK cells; Trial 6) was 46.8%. For the same sequence, the “percentage of IFNG+ NK cells” value (NKG2A−/NKG2C+ NK cells; Trial 6) was 28.6%, the “percentage of TNF+ NK cells” value (NKG2A−/NKG2C+ NK cells; Trial 6) was 15% and the “percentage CCL3+ NK cells” value (NKG2A−/NKG2C− NK cells; Trial 1) was 33%. For the same sequence, the “percentage CD107+ NK cells” value (NKG2A−/NKG2C− NK cells; Trial 1) was 26.5%, the “percentage TNF+ NK cells” value (NKG2A−/NKG2C− NK cells; Trial 1) was 4.11% and the “percentage of IFNG+ NK cells” value (NKG2A−/NKG2C− NK cells; Trial 1) was 14.6%. For the same sequence, the “percentage CCL3+ NK cells” value (NKG2A−/NKG2C− NK cells; Trial 2) was 55.5%, the “percentage CD107+ NK cells” value (NKG2A−/NKG2C− NK cells; Trial 2) was 32.5% and the “percentage TNF+ NK cells” value (NKG2A−/NKG2C− NK cells; Trial 2) was 10.4%. The “percentage of IFNG+ NK cells” value (NKG2A−/NKG2C− NK cells; Trial 2) was 26.3%, the “percentage CCL3+ NK cells” value (NKG2A−/NKG2C− NK cells; Trial 3) was 53.4% and the “percentage CD107+ NK cells” value (NKG2A−/NKG2C− NK cells; Trial 3) was 48.1%. The “percentage TNF+ NK cells” value (NKG2A−/NKG2C− NK cells; Trial 3) was 18%, the “percentage of IFNG+ NK cells” value (NKG2A−/NKG2C− NK cells; Trial 3) was 41.4% and the “percentage CCL3+ NK cells” value (NKG2A−/NKG2C− NK cells; Trial 4) was 30.6%. For the same sequence, the “percentage CD107+ NK cells” value (NKG2A−/NKG2C− NK cells; Trial 4) was 27.8%, the “percentage TNF+ NK cells” value (NKG2A−/NKG2C− NK cells; Trial 4) was 9.09% and the “percentage of IFNG+ NK cells” value (NKG2A−/NKG2C− NK cells; Trial 4) was 18.7%. For the same sequence, the “percentage CCL3+ NK cells” value (NKG2A−/NKG2C− NK cells; Trial 5) was 23.5%, the “percentage CD107+ NK cells” value (NKG2A−/NKG2C− NK cells; Trial 5) was 19% and the “percentage TNF+ NK cells” value (NKG2A−/NKG2C− NK cells; Trial 5) was 6.08%. The “percentage of IFNG+ NK cells” value (NKG2A−/NKG2C− NK cells; Trial 5) was 14.6%, the “percentage CCL3+ NK cells” value (NKG2A−/NKG2C− NK cells; Trial 6) was 22% and the “percentage CD107+ NK cells” value (NKG2A−/NKG2C− NK cells; Trial 6) was 20.1%. The “percentage TNF+ NK cells” value (NKG2A−/NKG2C− NK cells; Trial 6) was 4.34% and the “percentage of IFNG+ NK cells” value (NKG2A−/NKG2C− NK cells; Trial 6) was 10.7%.
In the case of TGPWRSLWI [human3, TGPWRSLWI], the “effect” value (NKG2A−/NKG2C+ NK cells; listed as SEQ ID NO. 2) is reported as “activate”, the “effect” value (NKG2A−/NKG2C+ NK cells; listed as h3) is reported as “activated” and the “percentage of CCL3+ NK cells” value (NKG2A−/NKG2C+ NK cells; Trial 1) is reported as 60.9%. The “percentage of CD107+ NK cells” value (NKG2A−/NKG2C+ NK cells; Trial 1) was 50.7%, the “percentage of IFNG+ NK cells” value (NKG2A−/NKG2C+ NK cells; Trial 1) was 27.8% and the “percentage of TNF+ NK cells” value (NKG2A−/NKG2C+ NK cells; Trial 1) was 19.1%. The “percentage of CCL3+ NK cells” value (NKG2A−/NKG2C+ NK cells; Trial 2) was 75.8%, the “percentage of CD107+ NK cells” value (NKG2A−/NKG2C+ NK cells; Trial 2) was 63.4% and the “percentage of IFNG+ NK cells” value (NKG2A−/NKG2C+ NK cells; Trial 2) was 36.4%. For the same sequence, the “percentage of TNF+ NK cells” value (NKG2A−/NKG2C+ NK cells; Trial 2) was 24.8%, the “percentage of CCL3+ NK cells” value (NKG2A−/NKG2C+ NK cells; Trial 3) was 75.7% and the “percentage of CD107+ NK cells” value (NKG2A−/NKG2C+ NK cells; Trial 3) was 73.9%. The “percentage of IFNG+ NK cells” value (NKG2A−/NKG2C+ NK cells; Trial 3) was 55.4%, the “percentage of TNF+ NK cells” value (NKG2A−/NKG2C+ NK cells; Trial 3) was 47.1% and the “percentage of CCL3+ NK cells” value (NKG2A−/NKG2C+ NK cells; Trial 4) was 64.5%. For the same sequence, the “percentage of CD107+ NK cells” value (NKG2A−/NKG2C+ NK cells; Trial 4) was 62.3%, the “percentage of IFNG+ NK cells” value (NKG2A−/NKG2C+ NK cells; Trial 4) was 46.9% and the “percentage of TNF+ NK cells” value (NKG2A−/NKG2C+ NK cells; Trial 4) was 37.4%. The “percentage of CCL3+ NK cells” value (NKG2A−/NKG2C+ NK cells; Trial 5) was 65.7%, the “percentage of CD107+ NK cells” value (NKG2A−/NKG2C+ NK cells; Trial 5) was 61% and the “percentage of IFNG+ NK cells” value (NKG2A−/NKG2C+ NK cells; Trial 5) was 43.5%. For the same sequence, the “percentage of TNF+ NK cells” value (NKG2A−/NKG2C+ NK cells; Trial 5) was 37.7%, the “percentage of CCL3+ NK cells” value (NKG2A−/NKG2C+ NK cells; Trial 6) was 46% and the “percentage of CD107+ NK cells” value (NKG2A−/NKG2C+ NK cells; Trial 6) was 39.5%. For the same sequence, the “percentage of IFNG+ NK cells” value (NKG2A−/NKG2C+ NK cells; Trial 6) was 23.3%, the “percentage of TNF+ NK cells” value (NKG2A−/NKG2C+ NK cells; Trial 6) was 15.8% and the “percentage CCL3+ NK cells” value (NKG2A−/NKG2C− NK cells; Trial 1) was 38.1%. The “percentage CD107+ NK cells” value (NKG2A−/NKG2C− NK cells; Trial 1) was 28.9%, the “percentage TNF+ NK cells” value (NKG2A−/NKG2C− NK cells; Trial 1) was 4.31% and the “percentage of IFNG+ NK cells” value (NKG2A−/NKG2C− NK cells; Trial 1) was 17.2%. The “percentage CCL3+ NK cells” value (NKG2A−/NKG2C− NK cells; Trial 2) was 61%, the “percentage CD107+ NK cells” value (NKG2A−/NKG2C− NK cells; Trial 2) was 37.9% and the “percentage TNF+ NK cells” value (NKG2A−/NKG2C− NK cells; Trial 2) was 8.81%. The “percentage of IFNG+ NK cells” value (NKG2A−/NKG2C− NK cells; Trial 2) was 26.9%, the “percentage CCL3+ NK cells” value (NKG2A−/NKG2C− NK cells; Trial 3) was 55.4% and the “percentage CD107+ NK cells” value (NKG2A−/NKG2C− NK cells; Trial 3) was 50.4%. For the same sequence, the “percentage TNF+ NK cells” value (NKG2A−/NKG2C− NK cells; Trial 3) was 20.8%, the “percentage of IFNG+ NK cells” value (NKG2A−/NKG2C− NK cells; Trial 3) was 44% and the “percentage CCL3+ NK cells” value (NKG2A−/NKG2C− NK cells; Trial 4) was 36.6%. The “percentage CD107+ NK cells” value (NKG2A−/NKG2C− NK cells; Trial 4) was 32.6%, the “percentage TNF+ NK cells” value (NKG2A−/NKG2C− NK cells; Trial 4) was 11.3% and the “percentage of IFNG+ NK cells” value (NKG2A−/NKG2C− NK cells; Trial 4) was 21.2%. For the same sequence, the “percentage CCL3+ NK cells” value (NKG2A−/NKG2C− NK cells; Trial 5) was 31%, the “percentage CD107+ NK cells” value (NKG2A−/NKG2C− NK cells; Trial 5) was 26.2% and the “percentage TNF+ NK cells” value (NKG2A−/NKG2C− NK cells; Trial 5) was 8.06%. For the same sequence, the “percentage of IFNG+ NK cells” value (NKG2A−/NKG2C− NK cells; Trial 5) was 19.1%, the “percentage CCL3+ NK cells” value (NKG2A−/NKG2C− NK cells; Trial 6) was 26.5% and the “percentage CD107+ NK cells” value (NKG2A−/NKG2C− NK cells; Trial 6) was 18.6%. For the same sequence, the “percentage TNF+ NK cells” value (NKG2A−/NKG2C− NK cells; Trial 6) was 4.18% and the “percentage of IFNG+ NK cells” value (NKG2A−/NKG2C− NK cells; Trial 6) was 8.37%.
